Assay results from patent US10815237B2, “Antimicrobials and methods of making and using same” (BIOVERSYS AG, priority 2016, dated 2020).

Columns and labels:
[1] = system: Chinese hamster ovary (CHO) cells; assay: cytotoxicity against CHO cell line (Cell Titer Blue); type: cell-based; settings: Cricetulus griseus, 24 h, CHO-K1 cells, 24 hours incubation, percent cell kill
Description: The compounds of the present disclosure were tested for cytotoxicity against Chinese hamster ovary (CHO) cells.
The assay was performed by seeding CHO—K1 in F12K medium containing 13.33% Fetal Bovine Serum […]. 37.5 μl of cell suspension at a concentration of 9,500 cells/well was plated into each column of a 384-well black clear bottom assay plate with the exception of a negative (no cell) control column, and allowed to adhere for 2 hours. The culture media was then removed from the 175 cm^2 flask(s) and the cell monolayer washed with 10 mL of Phosphate Buffered Saline PBS. 3 mL of Cellstripper™ was then added and the flask was incubated for approximately 5 min at 37° C. The cells were dissociated by agitation and 7 mL of F 12K medium containing 10% FBS was added to the flask. A homogeneous cell suspension was obtained by trituration of the flask. The cells were counted with a hemocytometer by diluting an aliquot of the cell suspension in PBS with 0.4% trypan blue. Typically, a ratio of 100 μl cell suspension to 1800 μl PBS to 100 μl trypan blue was used.
The volume of cell suspension containing the number of cells needed to seed the plate(s) (15.2 mL containing 3.8×10^6 cells) was calculated and transferred to a 50 mL centrifuge tube with the appropriate volume of media. 37.5 μl of cells were added to each well of the 384 well plate except for the negative (no cell) control column. A cytotoxicity 100-fold dilution plate was then prepared by manually pipetting 18 μl of 100% DMSO into two columns of an empty low volume dilution plate. 2 μl of a 50 mM solution of compounds 1-23 from the translation plate were manually pipetted into the corresponding columns of the 100-fold dilution plate. 10 μl of 100% DMSO was manually pipetted into all remaining columns of the 100-fold plate.
A 4-fold cytotoxicity plate was prepared beforehand by manually pipetting 48 μl of F12K media (without DMSO and without FBS) into each well of a matrix 384 well plate. The test samples in the 100-fold dilution plate were mixed and diluted. Ten 2-fold dilutions were performed for each compound in duplicate. The 384 cannula array then transferred 2 μl to the 48 μl of media in the cytotoxicity 4-fold dilution plate. The array was then mixed and 12.5 μl of samples from the cytotoxicity 4-fold dilution plate were transferred to the 37.5 μl of cells and media. The final top concentration of samples at this point in the procedure was 50 μM with 10 subsequent 1:2 dilutions down to […]. The final DMSO concentration were 1% and the final concentration of FBS was 10%.
Cycloheximide was run as a control. Specifically, Cycloheximide was diluted to 0.1 mM from 100 mM stock […] and was added to the cytotoxicity 100-fold plate. Upon addition to the cell plate, a range of 1 μM to 1 nM of cycloheximide was run.
A column separate from the one (referred to above) that served as the negative control was used for cell control wells to which only media was added.
The plates were then incubated for 24 hours at 37° C. and 5% CO2. […] The two columns used earlier to prepare the 100-fold dilution plate by pipetting 18 μl of 100% DMSO contained the samples tested at 200 μM. After the 24 hour incubation period, the 4 μl of Cell Titer blue was added to each well using a Multichannel Matrix pipettor. The plates were returned to the incubator and incubated for an additional 5 hours. Fluorescence (530 nm excitation wavelength/590 nm emission wavelength) was measured on a Wallac Victor microplate reader.
Cell viability was assessed fluorometrically after a 5 hour incubation with resazurin (Cell Titer Blue™), which is reduced by living cells to the fluorescent resorufin.
The average fluorescence for the negative control was determined to obtain the average blank fluorescence. The average blank fluorescence was subtracted from the fluorescence values obtained for all the test agents. The resulting values are the corrected fluorescence. […]

[2] = system: Eschericia coli (E. coli) strain ATCC25922; assay: standard microdilution MIC, E. coli; type: cell-based, Escherichia coli; settings: Escherichia coli
Description: (§1) The in vitro activity of the compounds of the present disclosure can be determined. Antimicrobial testing is typically performed to determine the minimum inhibitory concentration (MIC). Minimum inhibitory concentrations (MICs) are determined by the microdilution method in a final volume of 100 μl according to protocols outlined by The Clinical and Laboratory Standards Institute (CLSI). Performance standards for reference strains are assessed within the same experimental design to maintain quality control. See, for example, Clinical Laboratory Standards Institute: Methods for dilution antimicrobial susceptibility tests for bacteria that grow aerobically M7-A8. Approved Standard-Eighth Edition. Wayne, Pa.: CLSI; December 2008; and Clinical Laboratory Standards Institute: Performance Standards for Antimicrobial Susceptibility Testing M100-S20; Approved Standard-Twentieth Edition. Wayne, Pa.: CLSI; June 2010.
(§2) The compounds of the present disclosure were tested for antimicrobial activity. The Compounds 1-23 were run against Eschericia coli (E. coli) strain ATCC25922 and against Staphylococcus aureus (S. aureus) 11540 strain using a standard microdilution assay to determine minimum inhibitory concentrations (MICs). […] It will be recognized by one skilled in the art that the compounds can be assessed against other bacterial organisms and that the presentation of data for activity against Eschericia coli and Staphylococcus aureus are illustrative and in no way is intended to limit the scope of the present disclosure. The compounds of the present disclosure can be assayed against a range of other microorganisms depending upon the performance activity desired to be gathered. Furthermore, the “+” and “−” representation and the selection of a cutoff value of 16 micrograms/mL is also illustrative and in no way is intended to limit the scope of the present disclosure.

[3] = system: Staphylococcus aureus (S. aureus) 11540 strain; assay: standard microdilution MIC, S. aureus; type: cell-based; settings: Staphylococcus aureus
Description: as §1, §2

Row | SMILES | IC50 [1] | MIC [2] | MIC [3]
1 | C[C@H](N)CCCc1cc(Cl)c(F)c(-c2cc3cn(-c4ccc([C@@H]5CCC[C@@H](CCNC(=N)CN)N5CCCF)cc4)c(=O)nc3[nH]2)c1 [Compound 20] | > 100 µM | ≤ 16 µg/mL | ≤ 16 µg/mL
2 | C[C@H](N)CCCc1cc(-c2cc3cn(-c4ccc([C@@H]5CCC[C@@H](CCNC(=N)CN)N5)cc4)c(=O)nc3[nH]2)ccc1C(F)(F)F [Compound 21] | > 100 µM | ≤ 16 µg/mL | ≤ 16 µg/mL
3 | CSc1cc(-n2cc3cc(-c4cc(CCC[C@H](C)N)cc(C(F)(F)F)c4)[nH]c3nc2=O)ccc1[C@@H]1CCC[C@@H](CCNC(=N)CN)N1CCCF [Compound 22] | > 100 µM | ≤ 16 µg/mL | ≤ 16 µg/mL
4 | C[C@H](N)CCCc1cc(-c2cc3cn(-c4ccc([C@@H]5CCC[C@@H](CCNC(=N)CN)N5CCCF)cc4)c(=O)nc3[nH]2)cc(C(F)(F)F)c1 [Compound 23] | > 100 µM | ≤ 16 µg/mL | ≤ 16 µg/mL
5 | N=C(CN)NCC[C@@H]1CCC[C@@H](c2ccc(-n3cc4cc(-c5cc(CCC[C@@H](N)C6CC6)cc(C(F)(F)F)c5)[nH]c4nc3=O)cc2)N1CCCF [Compound 42] | > 100 µM | ≤ 16 µg/mL | ≤ 16 µg/mL
6 | N=C(CN)NCC[C@@H]1CCC[C@@H](c2ccc(-n3cc4cc(-c5cc(CCC[C@@H](N)C6CC6)cc(C(F)(F)F)c5)[nH]c4nc3=O)cc2F)N1CCCF [Compound 43] | > 100 µM | ≤ 16 µg/mL | ≤ 16 µg/mL
7 | C[C@H](N)CCCc1cc(-c2cc3cn(-c4ccc([C@@H]5CCC[C@@H](CCNC(=N)CN)N5CCCF)c(F)c4)c(=O)nc3[nH]2)cc(C(F)(F)F)c1 [Compound 44] | > 100 µM | ≤ 16 µg/mL | ≤ 16 µg/mL
8 | N=C(CN)NCC[C@@H]1CCC[C@@H](c2ccc(-n3cc4cc(-c5cc(CCC[C@@H](N)C6CC6)cc(Cl)c5F)[nH]c4nc3=O)cc2)N1CCCF [Compound 45] | > 100 µM | ≤ 16 µg/mL | ≤ 16 µg/mL
9 | C[C@H](N)CCCc1cc(Cl)c(F)c(-c2cc3cn(-c4ccc([C@@H]5CCC[C@@H](CCNC(=N)CN)N5CCCF)c(F)c4)c(=O)nc3[nH]2)c1 [Compound 46] | > 100 µM | ≤ 16 µg/mL | ≤ 16 µg/mL
10 | N=C(CN)NCC[C@@H]1CCC[C@@H](c2ccc(-n3cc4cc(-c5cc(CCC[C@@H](N)C6CC6)cc(Cl)c5F)[nH]c4nc3=O)cc2F)N1CCCF [Compound 47] | 50.5 µM | ≤ 16 µg/mL | ≤ 16 µg/mL
11 | CSc1cc(-n2cc3cc(-c4cc(CCC[C@@H](N)C5CC5)cc(Cl)c4F)[nH]c3nc2=O)ccc1[C@@H]1CCC[C@@H](CCNC(=N)CN)N1CCCF [Compound 48] | 13.5 µM | ≤ 16 µg/mL | ≤ 16 µg/mL
12 | CSc1cc(-n2cc3cc(-c4cc(CCC[C@H](C)N)cc(Cl)c4F)[nH]c3nc2=O)ccc1[C@@H]1CCC[C@@H](CCNC(=N)CN)N1CCCF [Compound 49] | 21.1 µM | ≤ 16 µg/mL | ≤ 16 µg/mL
13 | CSc1cc(-n2cc3cc(-c4cc(CCC[C@H](C)N)cc(Cl)c4F)[nH]c3nc2=O)cc(F)c1[C@@H]1CCC[C@@H](CCNC(=N)CN)N1CCCF [Compound 50] | 10.1 µM | ≤ 16 µg/mL | ≤ 16 µg/mL
14 | CSc1cc(-n2cc3cc(-c4cc(CCC[C@H](C)N)cc(C(F)(F)F)c4)[nH]c3nc2=O)cc(F)c1[C@@H]1CCC[C@@H](CCNC(=N)CN)N1CCCF [Compound 51] | > 100 µM | > 16 µg/mL | ≤ 16 µg/mL
15 | CSc1cc(-n2cc3cc(-c4cc(CCC[C@@H](N)C5CC5)cc(Cl)c4F)[nH]c3nc2=O)cc(F)c1[C@@H]1CCC[C@@H](CCNC(=N)CN)N1CCCF [Compound 52] | 15.9 µM | ≤ 16 µg/mL | ≤ 16 µg/mL
16 | CSc1cc(-n2cc3cc(-c4cc(CCC[C@@H](N)C5CC5)cc(C(F)(F)F)c4)[nH]c3nc2=O)ccc1[C@@H]1CCC[C@@H](CCNC(=N)CN)N1CCCF [Compound 53] | > 100 µM | ≤ 16 µg/mL | ≤ 16 µg/mL
17 | CSc1cc(-n2cc3cc(-c4cc(CCC[C@@H](N)C5CC5)cc(C(F)(F)F)c4)[nH]c3nc2=O)cc(F)c1[C@@H]1CCC[C@@H](CCNC(=N)CN)N1CCCF [Compound 54] | > 100 µM | > 16 µg/mL | ≤ 16 µg/mL
18 | C=C[C@H](N)CCCc1cc(-c2cc3cn(-c4ccc([C@@H]5CCC[C@@H](CCNC(=N)CN)N5CCCF)c(SC)c4)c(=O)nc3[nH]2)cc(C(F)(F)F)c1 [Compound 55] | > 100 µM | ≤ 16 µg/mL | ≤ 16 µg/mL
19 | C=C[C@H](N)CCCc1cc(-c2cc3cn(-c4ccc([C@@H]5CCC[C@@H](CCNC(=N)CN)N5CCCF)cc4)c(=O)nc3[nH]2)cc(C(F)(F)F)c1 [Compound 56] | > 100 µM | ≤ 16 µg/mL | ≤ 16 µg/mL
20 | C[C@H](N)CCCc1cc(Cl)c(F)c(-c2cc3cn(-c4ccc([C@@H]5CCC[C@@H](CCNC(=N)[C@@H](N)CO)N5)cc4)c(=O)nc3[nH]2)c1 [Compound 57] | > 100 µM | ≤ 16 µg/mL | ≤ 16 µg/mL
21 | C[C@H](N)CCCc1cc(Cl)c(F)c(-c2cc3cn(-c4ccc([C@@H]5CCC[C@@H](CCNC(=N)[C@H](N)CO)N5)cc4)c(=O)nc3[nH]2)c1 [Compound 58] | > 100 µM | ≤ 16 µg/mL | ≤ 16 µg/mL
22 | C[C@H](N)CCCc1cc(Cl)c(F)c(-c2cc3cn(-c4ccc([C@@H]5CCC[C@@H](CCNC(=N)[C@@H](C)N)N5)cc4)c(=O)nc3[nH]2)c1 [Compound 59] | > 100 µM | ≤ 16 µg/mL | ≤ 16 µg/mL
23 | C[C@H](N)CCCc1cc(Cl)c(F)c(-c2cc3cn(-c4ccc([C@@H]5CCC[C@@H](CCNC(=N)[C@H](C)N)N5)cc4)c(=O)nc3[nH]2)c1 [Compound 60] | > 100 µM | ≤ 16 µg/mL | ≤ 16 µg/mL
24 | C=C[C@H](N)CCCc1cc(Cl)c(F)c(-c2cc3cn(-c4ccc([C@@H]5CCC[C@@H](CCNC(=N)CN)N5CCCF)c(SC)c4)c(=O)nc3[nH]2)c1 [Compound 61] | 13.6 µM | ≤ 16 µg/mL | ≤ 16 µg/mL
25 | C=C[C@H](N)CCCc1cc(-c2cc3cn(-c4cc(F)c([C@@H]5CCC[C@@H](CCNC(=N)CN)N5CCCF)c(SC)c4)c(=O)nc3[nH]2)cc(C(F)(F)F)c1 [Compound 62] | > 100 µM | > 16 µg/mL | ≤ 16 µg/mL
26 | C=C[C@H](N)CCCc1cc(-c2cc3cn(-c4ccc([C@@H]5CCC[C@@H](CCNC(=N)CN)N5CCCF)c(F)c4)c(=O)nc3[nH]2)cc(C(F)(F)F)c1 [Compound 63] | > 100 µM | ≤ 16 µg/mL | ≤ 16 µg/mL
